Results from ChEMBL document CHEMBL1130711, “Identification of novel nucleotide phosphonate analogs with potent anti-HCMV activity” (Bioorg Med Chem Lett, 1998).
≈ marks a conversion by molar mass, not a printed value.

Experiments:
[1] = system: WI-38; assay: (§1) Compound was tested for antiviral activity against WI-38 cell line using a plaque reduction assay; assay type: functional; details: Homo sapiens
[2] = system: WI-38; assay: as §1; assay type: functional, cell-based; details: Homo sapiens
[3] = system: Human betaherpesvirus 5; assay: Compound was tested for antiviral activity against human cytomegalovirus (HCMV).; assay type: functional, organism-based
[4] = system: Human betaherpesvirus 5; assay: Compound was tested for cytotoxicity against human cytomegalovirus (HCMV).; assay type: functional
[5] = system: MRC5; assay: (§2) Compound was tested for cytotoxicity by measuring inhibition of MRC-5 cell proliferation.; assay type: functional; details: Homo sapiens
[6] = system: MRC5; assay: as §2; assay type: functional, cell-based; details: Homo sapiens
[7] = system: WI-38; assay: Compound was tested for antiviral activity against WI-38 cell line using a plaque reduction assay; 10-50; assay type: functional; details: Homo sapiens
[8] = system: WI-38; assay: Compound was tested for antiviral activity against WI-38 cell line using a plaque reduction assay; 0.5-1; assay type: functional, cell-based; details: Homo sapiens
[9] = system: WI-38; assay: Compound was tested for antiviral activity against WI-38 cell line using a plaque reduction assay; 10-100; assay type: functional; details: Homo sapiens
[10] = system: WI-38; assay: Compound was tested for antiviral activity against WI-38 cell line using a plaque reduction assay; 0.1-1; assay type: functional, cell-based; details: Homo sapiens

SMILES	CC50 [1] [µg/mL]	IC50 [2] [µg/mL]	CC50 [5] [µg/mL]	IC50 [6] [µg/mL]	other results
Nc1nc(N)c2ncn(C[C@H]3CC[C@H](P(=O)(O)O)O3)c2n1	> 100	> 50	–	–	–
Nc1nc(N)c2ncn(C[C@@H]3CC[C@@H](P(=O)(O)O)O3)c2n1	> 100	50 (≈ 159 µM)	–	–	–
Nc1nc(O)c2ncn(C[C@@H]3CO[C@H](P(=O)(O)O)O3)c2n1	–	–	–	–	IC50 [3]: 45 µg/mL (≈ 142 µM); CC50 [4]: > 100 µg/mL
Nc1nc(O)c2ncn(C[C@H]3CC[C@@H](P(=O)(O)O)O3)c2n1	100 (≈ 317 µM)	> 10	–	–	–
Nc1nc(N)c2ncn(C[C@@H]3CC[C@H](P(=O)(O)O)O3)c2n1	> 100	> 50	–	–	–
Nc1ncc2ncn(C[C@@H]3CC[C@H](P(=O)(O)O)O3)c2n1	> 100	100 (≈ 334 µM)	–	–	–
Nc1nc(O)c2ncn(C[C@H]3CC[C@H](P(=O)(O)O)O3)c2n1	> 100	> 10	–	–	–
Nc1nc(O)c2ncn(C[C@@H]3CC[C@H](P(=O)(O)O)O3)c2n1	–	–	> 10	1.6 (≈ 5.08 µM)	CC50 [7]: 10 µg/mL (≈ 31.7 µM); IC50 [8]: 0.5 µg/mL (≈ 1.59 µM)
Nc1nc(O)c2ncn(C[C@@H]3CC[C@@H](P(=O)(O)O)O3)c2n1	–	–	28 (≈ 88.8 µM)	0.11 (≈ 0.349 µM)	CC50 [9]: 10 µg/mL (≈ 31.7 µM); IC50 [10]: 0.1 µg/mL (≈ 0.317 µM)
Nc1ccn(C[C@@H](CO)OCP(=O)(O)O)c(=O)n1.O.O [CIDOFOVIR]	–	–	19	0.04	CC50 [7]: 10 µg/mL; IC50 [10]: 0.1 µg/mL
Nc1nc2c(ncn2COC(CO)CO)c(=O)[nH]1 [GANCICLOVIR]	–	–	> 100	2.1 (≈ 8.23 µM)	–
Nc1nc(N)c2ncn(C[C@H]3CC[C@@H](P(=O)(O)O)O3)c2n1	> 100	> 50	–	–	–
